From US12122816B2, “Long acting peptide tyrosine tyrosine (PYY) analogs and methods of use” (Intarcia Therapeutics, Inc., priority 2020, dated 2024)
Starred links: 1 amine or outer side, 2 acyl side, 3 side chain; linkers in the order of their positions; H or OH if unused. Positions of bridges follow the written chain, without caps; N, C: chain ends. Residues, ends and D or L forms follow the SMILES beside them. Groups on a side chain read outwards from the residue. *: point of attachment. C19 diacid = O=C(O)CCCCCCCCCCCCCCCCCC(=O)*; γGlu = O=C(O)[C@H](CCC(=O)[*:2])N[*:1]

Key:
[1] = Solubility in DI water at room temperature (visual inspection); type: physicochemical; settings: TFA salt form
Protocol: The analog polypeptides described herein were tested for solubility in saline or in aqueous (DI water) at room temperature. Samples were visually inspected for clarity of the sample, any appearance of turbidity or haziness.

[2] = Stability in water or saline (1 mg/ml) at 37° C., purity by LC/MS and HPLC; type: physicochemical; settings: TFA salt form

Row | Structure (SMILES) | Solubility (in Water, RT) [1] | Stability (37° C./RT, T0: Mar. 25, 2020) [2]
1 | CC(C)C[C@H](NC(=O)[C@H](CC(=O)O)NC(=O)[C@@H]1CCCCNC(=O)CC[C@H](NC(=O)[C@H](Cc2c[nH]c3ccccc23)NC(=O)[C@H](CCC(=O)O)NC(=O)[C@H](CCCCN)NC(=O)[C@@H]2CCCN2C(=O)[C@H](CO)NC(=O)[C@H](C)NC(=O)[C@H](CC(=O)O)NC(=O)[C@H](CCCCNC(=O)CC[C@H](NC(=O)CC[C@H](NC(=O)CCCCCCCCCCCCCCCCCC(=O)O)C(=O)O)C(=O)O)NC(=O)CNC(=O)[C@@H]2CCCN2C(=O)[C@H](CCCCN)NC(=O)[C@H](CCC(=O)O)NC(=O)[C@@H]2CCCN2C(=O)[C@H](CCCCN)NC(=O)[C@@H]2CCCN2)C(=O)N[C@@H](CCCNC(=N)N)C(=O)N[C@@H](Cc2ccc(O)cc2)C(=O)N[C@@H](Cc2ccc(O)cc2)C(=O)N1)C(=O)N[C@@H](CCCNC(=N)N)C(=O)N[C@@H](Cc1c[nH]cn1)C(=O)N[C@@H](Cc1ccc(O)cc1)C(=O)N[C@@H](CC(C)C)C(=O)N[C@@H](CC(N)=O)C(=O)N[C@@H](Cc1c[nH]c2ccccc12)C(=O)N[C@@H](CC(C)C)C(=O)N[C@H](C(=O)N[C@@H](CCCNC(=N)N)C(=O)N[C@@H](CCC(N)=O)C(=O)N[C@@H](CCCNC(=N)N)C(=O)N[C@@H](Cc1ccccc1)C(N)=O)[C@@H](C)O [Compound A39] (H-PKPEKPGK([γGlu-γGlu-C19 diacid])DASPKEWERYYKDLRHYLNWLTRQRF-NH2; lactam 16-20; N-terminus assumed) | 16 mg/mL | 95.9
2 | CC(C)C[C@H](NC(=O)[C@H](CC(=O)O)NC(=O)[C@@H]1CCCCNC(=O)C[C@H](NC(=O)[C@H](Cc2c[nH]c3ccccc23)NC(=O)[C@H](CCC(=O)O)NC(=O)[C@H](CCCCN)NC(=O)[C@@H]2CCCN2C(=O)[C@H](CO)NC(=O)[C@H](C)NC(=O)[C@H](CC(=O)O)NC(=O)[C@H](CCCCNC(=O)CC[C@H](NC(=O)CC[C@H](NC(=O)CCCCCCCCCCCCCCCCCC(=O)O)C(=O)O)C(=O)O)NC(=O)CNC(=O)[C@@H]2CCCN2C(=O)[C@H](CCCCN)NC(=O)[C@H](CCC(=O)O)NC(=O)[C@@H]2CCCN2C(=O)[C@H](CCCCN)NC(=O)[C@@H]2CCCN2)C(=O)N[C@@H](CCCNC(=N)N)C(=O)N[C@@H](Cc2ccc(O)cc2)C(=O)N[C@@H](Cc2ccc(O)cc2)C(=O)N1)C(=O)N[C@@H](CCCNC(=N)N)C(=O)N[C@@H](Cc1c[nH]cn1)C(=O)N[C@@H](Cc1ccc(O)cc1)C(=O)N[C@@H](CC(C)C)C(=O)N[C@@H](CC(N)=O)C(=O)N[C@@H](Cc1c[nH]c2ccccc12)C(=O)N[C@@H](CC(C)C)C(=O)N[C@H](C(=O)N[C@@H](CCCNC(=N)N)C(=O)N[C@@H](CCC(N)=O)C(=O)N[C@@H](CCCNC(=N)N)C(=O)N[C@@H](Cc1ccccc1)C(N)=O)[C@@H](C)O [Compound A40] | 27 mg/mL | 98.1
